Where two headings read alike, the source gives them in different places. Marks after values point to notes of the source that are not given here.
Columns and labels:
[1] = flower buds 2006; for Fosetyl-Al residue: 10 days
From the text: In 2006, the magnitude of the levels of fosetyl-Al and phosphorous acid residues in the developing flower buds was monitored on three plots: in the control untreated plot, in the plot treated with fosetyl-Al based on 3×3.75 kg/ha (application on 18/05, 30/05 and 08/06) and in the plot treated with fosetyl-Al based on 6×2.0 kg/ha (application on 18/05, 30/05, 08/06, 19/06, 29/06 and 10/07).
On each date (with the exception of the first sampling date), 40 flower buds with their surrounding leaves were gathered. On the first sampling date, 40 flower buds were gathered without leaves.
The flower bud samples were taken before the next treatment on the following dates: 30/05, 08/06, 19/06, 28/06, 10/07 and 28/08. For the two fosetyl-Al and phosphorous acid products, the levels of residues in the flower buds were determined with the aid of an LC-MS-MS analytical method. The limit of quantification (LOQ) was 0.1 mg/kg for fosetyl-Al, 2 mg/kg for phosphorous acid and 3 mg/kg for the total residue expressed as fosetyl-Al equivalent. The total residue is the sum of the residues derived from fosetyl-Al and phosphorous acid expressed as fosetyl-Al equivalent.
The results are calculated according to the following formula:
[formula] in which: • Mfosetyl-Al represents the molecular weight of fosetyl-Al: 354.1 g/mol • Mphosphorous acid represents the molecular mass of phosphorous acid: 82 g/mol; multiplied by 3, since 1 mol of fosetyl-Al corresponds to 3 mol of phosphorous acid.
For the pear bud samples, the fosetyl-Al and phosphorous acid residues are extracted with the aid of an acetonitrile/water (50:50, v/v) mixture. After centrifugation and dilution of the sampling material, the residues are quantified by HPLC and detected by tandem mass spectrometry with electrospray ionization. The quantification is performed by external standardization. The statistical analysis is performed per parameter on the complete set of data for the different sampling dates.

[2] = test system: pear trees (Conference cultivar); assay: Productivity of the pear trees after the treatments (field trial); assay type: in vivo; conditions: 2006, treated 2004 and 2005
Protocol: (§1) During three consecutive years 2004, 2005 and 2006, a trial was carried out on young pear trees of the Conference cultivar on a Quince Adams stock. The pear trees of this orchard were planted in 1999 according to the system of a single row at a planting distance of 3.5 m between the rows and 1.5 m in the row with a tree height of 3 m.
(§2) During the 2004 trial, three products were compared in an arbitrary block design with 10 trees per plot in four repeats: the observations were made on the 8 trees inside the plot. […] The applications were in the post-flower period at an interval of 10 days.
(§3) In 2005, the same applications were repeated on the same trees.
(§4) After one year during flowering, the effect of the treatments on the quality of the flower bud was evaluated. Statistical analysis of the various parameters is performed (Unistat Statistical Package, Version 5.5). The original or processed data are analyzed according to the General Linear Model and the treatment means are separated in a standard manner using the Duncan multiple classification test (5% level).

[3] = test system: pear trees (Conference cultivar); conditions: plot treated at 3.75 kg/ha, 2004 treatments
From the text: as §2, §3

[4] = test system: flower bud dieback on pear trees (Conference variety); assay: Flower bud quality field trial against flower bud dieback on young pear trees; assay type: in vivo, pear trees (Conference cultivar); conditions: for Good quality buds (%) 1 yw S: 1-year old wood side position; for Good quality buds (%) 1 yw S / Good quality buds (%) 1 yw T / Good quality buds (%) 2 yw / Good quality buds (%) Per tree: treated 2004 and 2005, 2006 flower buds; for Good quality buds (%) 1 yw T: 1-year old wood terminal position; for Good quality buds (%) 2 yw: 2-year old wood
Protocol: as §1, §2, §3
In 2006, the complete trial was repeated on new trees in the same orchard. The fosetyl-Al doses varying between 2 and 3.75 kg/ha of standard orchard (corresponding to doses varying from 1.33 to 2.50 kg/ha of foliar surface area) were applied in the post-flower period during the months of May and June at an interval of 5 or 10 days between the treatments. Benzothiadiazole applied at a dose of 200 g/ha of standard orchard (corresponding to a dose of 133 g/ha of foliar surface area) was included as reference product in order to induce plant defense reactions by the trees.
as §4

[5] = 3 x 3.75 kg/ha May interval 10 + 3 x 3.75 kg/ha June interval 14, object excluded from statistical analysis
[6] = 3 x 3.75 kg/ha May, interval 10
[7] = 3 x 3.75 kg/ha May, primary efflorescence
[8] = 3 x 3.75 kg/ha May interval 10 + 3 x 3.75 kg/ha June interval 14
[9] = treated 2004, 2005 flower buds, 3 x 3.75 kg/ha May interval 10 + 1 x 3.75 kg/ha AH
[10] = treated 2004, 2005 flower buds, 3 x 3.75 kg/ha May interval 10 + 3 x 3.75 kg/ha June interval 14
[11] = treated 2004, 2005 flower buds, 3 x 3.75 kg/ha May, interval 10
[12] = treated 2006, 2007 flower buds, 3 x 3.75 kg/ha June, interval 10
[13] = treated 2006, 2007 flower buds, 3 x 3.75 kg/ha May, interval 10
[14] = treated 2006, 2007 flower buds, 6 x 2 kg/ha June, interval 5
[15] = treated 2006, 2007 flower buds, 6 x 2 kg/ha May, interval 5
[16] = treated 2006, 2007 flower buds, 6 x 2 kg/ha May-June, interval 10

In the case of `CCO[PH](=O)O.[Al]` [Fosetyl-Al, aluminum ethyl hydrogen phosphonate], the “time the level of fosetyl-Al residue was maintained after the last treatment” value ([1]; dose of 3.75 kg/ha) is reported as “approximately 4 weeks”, the Fosetyl-Al residue ([1]; fosetyl-Al 3 x 3.75 kg/ha May, sampling 08/06) is reported as 12.92 mg/kg and the Fosetyl-Al residue ([1]; fosetyl-Al 3 x 3.75 kg/ha May, sampling 10/07) is reported as 2.14 mg/kg. The Fosetyl-Al residue ([1]; fosetyl-Al 3 x 3.75 kg/ha May, sampling 19/06) was 10.65 mg/kg, the Fosetyl-Al residue ([1]; fosetyl-Al 3 x 3.75 kg/ha May, sampling 28/06) was 10.83 mg/kg and the Fosetyl-Al residue ([1]; fosetyl-Al 3 x 3.75 kg/ha May, sampling 28/08) was 0.11 mg/kg. The Fosetyl-Al residue ([1]; fosetyl-Al 3 x 3.75 kg/ha May, sampling 30/05) was 0.1 mg/kg, the Fosetyl-Al residue ([1]; fosetyl-Al 6 x 2 kg/ha May-June, sampling 08/06) was 10.64 mg/kg and the Fosetyl-Al residue ([1]; fosetyl-Al 6 x 2 kg/ha May-June, sampling 10/07) was 2.86 mg/kg. It also gave a Fosetyl-Al residue ([1]; fosetyl-Al 6 x 2 kg/ha May-June, sampling 19/06) of 4.52 mg/kg, a Fosetyl-Al residue ([1]; fosetyl-Al 6 x 2 kg/ha May-June, sampling 28/06) of 20.56 mg/kg and a Fosetyl-Al residue ([1]; fosetyl-Al 6 x 2 kg/ha May-June, sampling 28/08) of 0.18 mg/kg. For the same molecule, the Fosetyl-Al residue ([1]; fosetyl-Al 6 x 2 kg/ha May-June, sampling 30/05) was 0.1 mg/kg, the “Average weight (g)” value [2, 5] was 137.9* g and the Number of fruits/tree [2, 5] was 152.2* fruits/tree. For the same molecule, the “Productivity (kg/tree)” value [2, 5] was 21* kg/tree, the “Average weight” value [2, 6] was 144.8 g and the Number of fruits/tree [2, 6] was 148.8 fruits/tree. For the same molecule, the “Productivity (kg/tree)” value [2, 6] was 21.5 kg/tree, the “Average weight” value [2, 7] was 157.7 g and the Number of fruits/tree [2, 7] was 140.4 fruits/tree. For the same molecule, the “Productivity (kg/tree)” value [2, 7] was 22.1 kg/tree, the phytotoxicity [3] was “absence of phytotoxicity” and the “Good quality buds (%) 1 yw S” value [4, 8] was 68.4%. For the same molecule, the “Good quality buds (%) 1 yw S” value [4, 6] was 56.5%, the “Good quality buds (%) 1 yw S” value [4, 7] was 69.8% and the “Good quality buds (%) 1 yw T” value [4, 8] was 97.2%. The “Good quality buds (%) 1 yw T” value [4, 6] was 82.7%, the “Good quality buds (%) 1 yw T” value [4, 7] was 90.2% and the “Good quality buds (%) 2 yw” value [4, 8] was 86.1%. The “Good quality buds (%) 2 yw” value [4, 6] was 75.1%, the “Good quality buds (%) 2 yw” value [4, 7] was 68.2% and the “flower bud quality with an additional treatment after harvesting versus post-flower treatments alone” value ([4]; 2004 treatments, 2005 buds) was “results comparable”. For the same molecule, the “Buds of good quality” value [4, 9] was 88.3%, the “Number of incomplete buds/tree” value [4, 9] was 9.2 buds/tree and the “Buds of good quality” value [4, 10] was 89.3%. For the same molecule, the “Number of incomplete buds/tree” value [4, 10] was 7.9 buds/tree, the “Buds of good quality” value [4, 11] was 88.4% and the “Number of incomplete buds/tree” value [4, 11] was 7.9 buds/tree. The “Good quality buds (%) Per tree” value [4, 8] was 92.3%, the “Good quality buds (%) Per tree” value ([4]; 3 x 3.75 kg/ha May interval 10 + 3 x 3.75 kg/ha June interval 14, listed as fosetyl-Al) was 92% and the “Good quality buds (%) Per tree” value [4, 6] was 85.9%. For the same molecule, the “Good quality buds (%) Per tree” value ([4]; 3 x 3.75 kg/ha May, interval 10, listed as fosetyl-Al) was 86%, the “Good quality buds (%) Per tree” value [4, 7] was 75.4% and the “Good quality buds (%) Per tree” value ([4]; 3 x 3.75 kg/ha May, primary efflorescence, listed as fosetyl-Al) was 75%. The “percentages of flower buds that have died back or that are incomplete” value ([4]; treated 2006, 2007 buds, all objects treated with fosetyl-Al) was “significantly reduced”, the “Buds that have died back (%)” value [4, 12] was 31.6% and the “Good quality buds (%)” value [4, 12] was 62.5%. The “Number of incomplete buds/tree” value [4, 12] was 5.9 buds/tree, the “Buds that have died back (%)” value [4, 13] was 33.4% and the “Good quality buds (%)” value [4, 13] was 59.3%. The “Number of incomplete buds/tree” value [4, 13] was 7.2 buds/tree, the “Good quality buds (%)” value ([4]; treated 2006, 2007 flower buds, 3 x 3.75 kg/ha May, interval 10, listed as fosetyl-Al) was 59% and the “Buds that have died back (%)” value [4, 14] was 31.5%. The “Good quality buds (%)” value [4, 14] was 63.5%, the “Number of incomplete buds/tree” value [4, 14] was 5 buds/tree and the “Buds that have died back (%)” value [4, 15] was 33%. For the same molecule, the “Good quality buds (%)” value [4, 15] was 59.6%, the “Number of incomplete buds/tree” value [4, 15] was 7.4 buds/tree and the “Good quality buds (%)” value ([4]; treated 2006, 2007 flower buds, 6 x 2 kg/ha May, interval 5, listed as fosetyl-Al) was 59%. The “Buds that have died back (%)” value [4, 16] was 33.9%, the “Good quality buds (%)” value [4, 16] was 61.2% and the “Number of incomplete buds/tree” value [4, 16] was 4.9 buds/tree.

Reference: patent US8404279B2, “Method for improving the bud quality of a plant” (Bayer CropScience AG, priority 2007, dated 2013)
